# In publication PMC10950972, “Relative bioavailability of fedratinib through various alternative oral administration methods in healthy adults” (Cancer Chemotherapy and Pharmacology, 2023):
# Like-named read-outs stand apart in the source and are kept apart here. Marks after values point to notes of the source that are not given here.
# Assays:
# [1] = Phase 1 relative bioavailability study part 2: plasma pharmacokinetics of fedratinib (3-period crossover); type: in vivo, human; settings: for Cmax / Tmax / AUC(0-t) / AUC(0-inf) / half-life: human, plasma; for half-life: read-out: t½, mean (SD) (converted)
# Procedure: Study part 2 was a 3-period, 6-sequence, open-label, crossover design (Fig. 1B). Treatment 2A (reference) consisted of fedratinib 400 mg (4 × 100-mg capsules) administered orally alongside a nutritional supplement. Treatment 2B (test) consisted of fedratinib 400 mg dispersed in the nutritional supplement (180 mL, Ensure Plus), administered via nasogastric tube, and flushed with 60 mL of sterile water. Treatment 2C (test) consisted of fedratinib 400 mg as a divided dose (2 × 100-mg capsules BID) administered alongside the nutritional supplement. Participants were randomized to receive treatment in one of the following sequences: 2A–2B–2C, 2A–2C–2B, 2B–2A–2C, 2B–2C–2A, 2C–2A–2B, or 2C–2B–2A. […] In the case of an evening (second) dose in the divided dosing plan of treatment 2C, participants were directed to pre-fast at least 2 h before fedratinib dose, and 4 h after fedratinib dose, with water restricted from approximately 2 h before and 1 h after dosing, excluding water given with the treatment.
# Approximately 1 h before each fedratinib administration, ondansetron oral tablet (film coated) 8 mg was given orally to reduce the potential for fedratinib-related nausea and vomiting. There was a washout period of at least 12 days between each dose of fedratinib. The duration from screening through the follow-up phone call was approximately 10 weeks. Participants resided at the clinical site from days -1 to 23 (study part 1), or days -1 to 35 (study part 2). If a participant discontinued from the study for any reason, an early termination visit was performed, with only the safety assessments scheduled for the day of discharge taking place. Additionally, each participant who discontinued also received a follow-up phone call 4 (± 2) days after completion of the early termination visit.
# For study part 1, and part 2 treatments 2A and 2B, blood samples were collected pre-dose (0 h) and at 0.5, 1, 1.5, 2, 3, 4, 6, 8, 12, 24, 48, 72, 120, 168, 192, and 240 h post-dose. For treatment 2C, blood samples were collected pre-dose (0 h) and at 0.5, 1, 1.5, 2, 3, 4, 6, 8, 12, 12.5, 13, 13.5, 14, 15, 16, 18, 24, 48, 72, 120, 168, 192, and 240 h post-dose of the first dose. The plasma concentration of fedratinib was measured using a validated liquid chromatography-tandem mass spectrometry assay with a lower limit of quantification of 1.00 ng/mL [12, 20].
# Plasma PK parameters were calculated using noncompartmental methods by a validated PK analysis program (Phoenix® WinNonlin®, v8.3.4 [Certara USA, Inc., Princeton, NJ, USA]) using actual times. The PK parameters determined for fedratinib Cmax, Tmax, AUC from time 0 to the time of the last quantifiable concentration (AUC0–t), AUC from time 0 to infinity (AUC0–∞), and t½. Additionally for treatment 2C, Cmax and Tmax were estimated after both the first dose (Cmax and Tmax) and the second dose (Cmax2 and Tmax2). AUC0–t and AUC0–∞ were estimated from time 0 (the first dose) through 240 h after the first dose. AUC parameters were calculated using the linear-log trapezoidal method.
# The sample size for this study was based on consideration of the precision in the comparison of PK parameters, represented by the 90% confidence interval (CI) of the geometric mean ratios of Cmax and AUC of fedratinib. […] Only participants with valid PK data were included in the summary statistics and statistical analysis.
# To compare the PK parameters and estimated relative bioavailability of fedratinib following different administration methods in each study part (treatment 1B to 1A, and treatment 2B and 2C to 2A), a linear mixed-effect model with treatment, period, and sequence as fixed effects and participant nested within sequence as a random effect was fitted to the natural log-transformed PK parameters (Cmax, AUC0–t, and AUC0–∞) for use in estimation of effects and construction of CIs. […]
# healthy adults = assay: Safety assessment (adverse events) in the phase 1 study; type: in vivo, human
# Procedure: Participants were monitored for adverse events (AEs) during the study, including assessments for clinical symptoms, biochemical, hematologic, and urinalysis laboratory results, physical examinations, 12-lead electrocardiograms, and vital signs. AEs were assessed for seriousness, severity, and relationship to the drug. AEs were assigned to the last study treatment administered at the time of onset, starting during or after the administration of the first dose. AEs that occurred after discharge were assigned to the last study treatment received for up to 30 days after the last dose of fedratinib.
# [2] = parameters: method as in earlier work; settings: 400 mg dosing in patients with myelofibrosis; range 2–4 h; cited from earlier work
# [3] = parameters: method as in PMID 27136912; settings: 100 mg and 500 mg doses, healthy volunteers; cited from earlier work
# [4] = Treatment 2B vs 2A (nasogastric tube vs intact capsules), linear mixed-effect model
# [5] = Treatment 2C: 400 mg oral divided dose (2 × 100-mg capsules BID) with nutritional supplement, after second dose, n = 30
smiles,measurement,setting,value
Cc1cnc(Nc2ccc(OCCN3CCCC3)cc2)nc1Nc1cccc(S(=O)(=O)NC(C)(C)C)c1 [fedratinib],AUC0–∞ geometric mean ratio (90% CI),[1]; [4],0.863 (0.816–0.912)
same,Cmax geometric mean ratio (90% CI),[1]; [4],0.898 (0.837–0.963)
same,AUC0–∞ geometric mean ratio (90% CI),"[1]; Treatment 2C vs 2A (divided dose vs intact capsules QD), linear mixed-effect model",0.850 (0.804–0.899)
same,"Cmax2, geometric mean (Geo. %CV)",[1]; [5],487.3^b (44.0) ng/mL
same,"Tmax2, median (range)",[1]; [5],3.9^b (1.0–6.0) h
same,Cmax,"[1]; oral, 400 mg, Treatment 2C: 400 mg divided dose (2 × 100-mg capsules BID), after first dose, n = 30, read-out: Cmax, geometric mean (statistical analysis)",641 ng/mL
same,Tmax,"[1]; oral, 400 mg, Treatment 2C: 400 mg divided dose (2 × 100-mg capsules BID), after first dose, n = 30, read-out: Tmax, median (statistical analysis)",2.26 h
same,AUC(0-t),"[1]; oral, 400 mg, Treatment 2C: 400 mg divided dose (2 × 100-mg capsules BID), n = 30, read-out: AUC0–t, geometric mean (statistical analysis)",18900 ng·h/mL
same,AUC(0-inf),"[1]; oral, 400 mg, Treatment 2C: 400 mg divided dose (2 × 100-mg capsules BID), n = 30, read-out: AUC0–∞, geometric mean (statistical analysis)",21300 ng·h/mL
same,AUC(0-t),"[1]; other: nasogastric tube, 400 mg, Treatment 2B: single 400 mg via nasogastric tube, capsule contents dispersed in nutritional supplement, n = 30, read-out: AUC0–t, geometric mean (Geo. %CV)",19200 ng·h/mL
same,AUC(0-inf),"[1]; other: nasogastric tube, 400 mg, Treatment 2B: single 400 mg via nasogastric tube, capsule contents dispersed in nutritional supplement, n = 30, read-out: AUC0–∞, geometric mean (Geo. %CV)",21600 ng·h/mL
same,Cmax,"[1]; other: nasogastric tube, 400 mg, Treatment 2B: single 400 mg via nasogastric tube, capsule contents dispersed in nutritional supplement, n = 30, read-out: Cmax, geometric mean (Geo. %CV)",1250 ng/mL
same,Tmax,"[1]; other: nasogastric tube, 400 mg, Treatment 2B: single 400 mg via nasogastric tube, capsule contents dispersed in nutritional supplement, n = 30, read-out: Tmax, median (range)",1.9 h
same,half-life,"[1]; other: nasogastric tube, 400 mg, Treatment 2B: single 400 mg via nasogastric tube, capsule contents dispersed in nutritional supplement, n = 30",106 h
same,AUC(0-t),"[1]; other: nasogastric tube, 400 mg, Treatment 2B: single 400 mg via nasogastric tube, dispersed in nutritional supplement, n = 30, read-out: AUC0–t, geometric mean (statistical analysis)",19200 ng·h/mL
same,AUC(0-inf),"[1]; other: nasogastric tube, 400 mg, Treatment 2B: single 400 mg via nasogastric tube, dispersed in nutritional supplement, n = 30, read-out: AUC0–∞, geometric mean (statistical analysis)",21600 ng·h/mL
same,Cmax,"[1]; other: nasogastric tube, 400 mg, Treatment 2B: single 400 mg via nasogastric tube, dispersed in nutritional supplement, n = 30, read-out: Cmax, geometric mean (statistical analysis)",1250 ng/mL
same,Tmax,"[1]; other: nasogastric tube, 400 mg, Treatment 2B: single 400 mg via nasogastric tube, dispersed in nutritional supplement, n = 30, read-out: Tmax, median (statistical analysis)",1.87 h
same,AUC(0-t),"[1]; po, 400 mg, Treatment 2A: single 400 mg oral, 4 × 100-mg intact capsules with nutritional supplement, n = 30, read-out: AUC0–t, geometric mean (Geo. %CV)",22600 ng·h/mL
same,AUC(0-inf),"[1]; po, 400 mg, Treatment 2A: single 400 mg oral, 4 × 100-mg intact capsules with nutritional supplement, n = 30, read-out: AUC0–∞, geometric mean (Geo. %CV)",25000 ng·h/mL
same,Cmax,"[1]; po, 400 mg, Treatment 2A: single 400 mg oral, 4 × 100-mg intact capsules with nutritional supplement, n = 30, read-out: Cmax, geometric mean (Geo. %CV)",1390 ng/mL
same,Tmax,"[1]; po, 400 mg, Treatment 2A: single 400 mg oral, 4 × 100-mg intact capsules with nutritional supplement, n = 30, read-out: Tmax, median (range)",2.9 h
same,half-life,"[1]; po, 400 mg, Treatment 2A: single 400 mg oral, 4 × 100-mg intact capsules with nutritional supplement, n = 30",96.8 h
same,AUC(0-t),"[1]; po, 400 mg, Treatment 2A: single 400 mg oral, intact capsules with nutritional supplement, n = 30, read-out: AUC0–t, geometric mean (statistical analysis)",22600 ng·h/mL
same,AUC(0-inf),"[1]; po, 400 mg, Treatment 2A: single 400 mg oral, intact capsules with nutritional supplement, n = 30, read-out: AUC0–∞, geometric mean (statistical analysis)",25000 ng·h/mL
same,Cmax,"[1]; po, 400 mg, Treatment 2A: single 400 mg oral, intact capsules with nutritional supplement, n = 30, read-out: Cmax, geometric mean (statistical analysis)",1390 ng/mL
same,Tmax,"[1]; po, 400 mg, Treatment 2A: single 400 mg oral, intact capsules with nutritional supplement, n = 30, read-out: Tmax, median (statistical analysis)",2.67 h
same,Cmax,"[1]; po, 400 mg, Treatment 2C: 400 mg oral divided dose (2 × 100-mg capsules BID) with nutritional supplement, after the first dose, n = 30, read-out: Cmax, geometric mean (Geo. %CV)",641 ng/mL
same,Tmax,"[1]; po, 400 mg, Treatment 2C: 400 mg oral divided dose (2 × 100-mg capsules BID) with nutritional supplement, after the first dose, n = 30, read-out: Tmax, median (range)",1.9 h
same,half-life,"[1]; po, 400 mg, Treatment 2C: 400 mg oral divided dose (2 × 100-mg capsules BID) with nutritional supplement, after the second dose, n = 30",96.7 h
same,AUC(0-t),"[1]; Treatment 2C: 400 mg oral divided dose (2 × 100-mg capsules BID) with nutritional supplement, from time 0 (first dose) through 240 h, n = 30, read-out: AUC0–t, geometric mean (Geo. %CV)",18900 ng·h/mL
same,AUC(0-inf),"[1]; Treatment 2C: 400 mg oral divided dose (2 × 100-mg capsules BID) with nutritional supplement, from time 0 (first dose), n = 30, read-out: AUC0–∞, geometric mean (Geo. %CV)",21300 ng·h/mL
same,Deaths or serious/severe AEs,"healthy adults; during the study, all treatments",no deaths or serious/severe AEs were reported
same,"AE constipation, participants","healthy adults; human, in vivo",12.1%
same,"AE diarrhea, participants","healthy adults; human, in vivo",10.3%
same,"AE somnolence, participants","healthy adults; human, in vivo",10.3%
same,Moderate AEs reported (number of AEs),"healthy adults; human, in vivo",4
same,Participants discontinued due to AEs,"healthy adults; human, in vivo",3 participants
same,Participants with at least 1 AE,"healthy adults; human, in vivo",65.5%
same,"Time to peak concentration, median",[2],3 h
same,"Increases in exposure (Cmax, AUC) when administered directly after food vs 10-h fasted",[3],< 25%
same,"Terminal elimination half-life (t½), fed vs fasted conditions",[3],remained unaffected
